Two molecules from PMC4050309, “Five New Guanacastane-Type Diterpenes from Cultures of the Fungus Psathyrella candolleana” (Natural Products and Bioprospecting, 2014) can be followed below.

Experiment [1] deals with T1, mouse 11β-HSD1 (11β-hydroxysteroid dehydrogenase) (Mus musculus, UniProt P50172).
T1 construct: gene Hsd11b1; full-length cDNA, microsomal fraction of stably transfected HEK-293 cells
The experiment can be described thus: scintillation proximity assay, [3H]cortisone to [3H]cortisol, microsomes overexpressing […]β-HSD1. It counts as biochemical. For orientation: SPA uses beads or plates that emit light when radiolabelled molecules are held near them.

In experiment [2] the target is T2, human 11β-HSD1 (11β-hydroxysteroid dehydrogenase) (Homo sapiens, UniProt P28845).
T2 construct: gene HSD11B1; full-length cDNA, microsomal fraction of stably transfected HEK-293 cells
T2 sequence (P28845 whole entry): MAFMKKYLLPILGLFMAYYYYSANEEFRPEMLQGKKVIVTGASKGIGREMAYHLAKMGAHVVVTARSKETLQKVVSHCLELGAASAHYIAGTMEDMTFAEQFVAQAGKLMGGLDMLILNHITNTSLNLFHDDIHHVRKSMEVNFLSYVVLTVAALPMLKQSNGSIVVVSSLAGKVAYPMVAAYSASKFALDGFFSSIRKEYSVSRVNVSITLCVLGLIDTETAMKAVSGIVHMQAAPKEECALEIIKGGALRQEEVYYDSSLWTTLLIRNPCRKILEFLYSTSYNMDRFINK
The experiment is described as above. It counts as biochemical.

pIC50: −log10 of the molar value.

T1 sequence (P50172 whole entry): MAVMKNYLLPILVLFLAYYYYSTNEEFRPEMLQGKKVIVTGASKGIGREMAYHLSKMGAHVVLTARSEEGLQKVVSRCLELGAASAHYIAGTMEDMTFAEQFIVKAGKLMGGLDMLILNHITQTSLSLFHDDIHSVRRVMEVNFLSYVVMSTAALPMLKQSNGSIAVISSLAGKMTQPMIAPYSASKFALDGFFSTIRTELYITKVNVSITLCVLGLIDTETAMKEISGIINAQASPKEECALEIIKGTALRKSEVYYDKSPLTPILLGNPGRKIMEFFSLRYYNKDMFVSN

In the case of `CC(C)C1=C(O)C(=O)C2=CC3=C(CO)C(=O)CC[C@@]3(C)CC[C@@]21C` [compound 3, Guanacastepene R], the pIC50 is 4.86 in experiment [1] and 5.21 in experiment [2].
Turning to `CC1(C)[C@@H](O[C@H]2O[C@H](C(=O)O)[C@@H](O)[C@H](O)[C@H]2O[C@@H]2O[C@H](C(=O)O)[C@@H](O)[C@H](O)[C@H]2O)CC[C@]2(C)[C@H]3C(=O)C=C4[C@@H]5C[C@@](C)(C(=O)O)CC[C@]5(C)CC[C@@]4(C)[C@]3(C)CC[C@@H]12` [glycyrrhizinic acid], the values for the pIC50 in experiment [1] and in experiment [2] were 8.19 and 8.38, respectively.

The pIC50 is −log10 of the IC50, conventionally taken in molar units.
